Results taken from article PMC9388626, “STUB1 is an intracellular checkpoint for interferon gamma sensing” (Scientific Reports, 2022).

What was measured:
[1] = system: B16-F10 cells; experiment: Flow cytometry, surface MHC-I on CRISPR-edited cells with IFNγ; assay type: cell-based, murine
Procedure: Parental, CRISPR-edited or biologic-overexpressed tumour cells were seeded in a cell density of 60,000 (B16-F10), 150,000 (CT26), 100,000 (A375), or 200,000 (A549) per well in 12-well plate filled with 0.8 ml culture media + 10% FBS. After overnight incubation, the culture media were replaced with 1 ml fresh media supplemented with 10% FBS and the designated concentration of the recombinant mouse IFNγ (R&D Systems, #485-MI-100) or recombinant human IFNγ (R&D Systems, #285-IF-100). […]
(§1) Cells were dissociated from the wells with 0.25% trypsin (Gibco, 25200056). After rinsing with 0.5 ml PBS, each sample was stained with the LIVE/DEAD Fixable Aqua dead cell staining solution (Life Technologies, L34957) in 100 µl PBS (1:1000 dilution) for 15 min at 4 °C. After rinsing with 2 × 0.5 ml PBS, each sample was stained with the corresponding primary antibody-dye conjugates diluted in 100 µl Pharmingen stain buffer (BD Biosciences, #554657). After 1 h staining at 4 °C, the cells were rinsed with 2 × 2 ml Pharmingen stain buffer and fixed with 4.21% (w/w) formaldehyde (BD Biosciences, #554655). Cells were analyzed on LSRFortessa X-20 (BD Biosciences) with appropiate fluorescence compensation. The data were analyzed using FlowJo. Cells were gated based on FSC and SSC. Single cells were selected using FSC-A and FSC-H and viable cells were selected using LIVE/DEAD signal. Primary antibodies used were: H-2K^b/H-2D^b (FITC, Biolegend, #114606, 1:50 dilution), HLA-A,B,C (FITC, Biolegend, #311404, 1:100 dilution), mouse IFNGR1 (PE, Invitrogen, #12-1191-82, 1:50 dilution), human IFNGR1 (PE, Miltenyi, #130-125-851, 1:50 dilution), mouse IL1R1 (APC, Biolegend, #113509, 1:20 dilution), mouse IL6R (APC, Biolegend, #115812, 1:20 dilution), mouse IFNAR1 (APC, Biolegend, #127314, 1:20 dilution), and mouse GP130 (PE, Biolegend, #149404, 1:100 dilution).

[2] = system: B16-F10 cells; experiment: Flow cytometry, surface IFNGR1 on CRISPR-edited cells; assay type: cell-based, murine; settings: B16-F10, 24 h
Procedure: Parental, CRISPR-edited or biologic-overexpressed tumour cells were seeded in a cell density of 60,000 (B16-F10), 150,000 (CT26), 100,000 (A375), or 200,000 (A549) per well in 12-well plate filled with 0.8 ml culture media + 10% FBS. After overnight incubation, the culture media were replaced with 1 ml fresh media supplemented with 10% FBS and the designated concentration of the recombinant mouse IFNγ (R&D Systems, #485-MI-100) or recombinant human IFNγ (R&D Systems, #285-IF-100). The cells were stimulated with the cytokine for 24 h before they were harvested by trypsinization for flow cytometry, western blot, or qPCR analysis (6 h treatment).
as §1

IFNγ
IFNγ concentration needed by parental and control cells for response comparable to Stub1-null cells ([1]; B16-F10 (Fig. 1b, e)): at least tenfold higher concentration of IFNγ
MHC-I relative abundance compared to parental ([1]; Parental, 0.10 ng ml-1, 24 h): 1.00
MHC-I relative abundance compared to parental ([1]; Parental, 0.10 ng ml-1, 48 h): 1.00
Surface MHC-I ([1]; Stub1-null vs parental and control B16-F10): significantly higher, IFNγ-dependent, MHC-I on cell surface
MHC-I relative abundance compared to parental ([1]; clone 1A12 (gStub1 #2), 0.10 ng ml-1, 24 h): 3.60
MHC-I relative abundance compared to parental ([1]; clone 1A12 (gStub1 #2), 0.10 ng ml-1, 48 h): 11.41
MHC-I relative abundance compared to parental ([1]; clone 1B9, 0.10 ng ml-1, 24 h): 1.36
MHC-I relative abundance compared to parental ([1]; clone 1B9, 0.10 ng ml-1, 48 h): 1.43
MHC-I relative abundance compared to parental ([1]; clone 1D8, 0.10 ng ml-1, 24 h): 4.16
MHC-I relative abundance compared to parental ([1]; clone 1D8, 0.10 ng ml-1, 48 h): 12.70
MHC-I relative abundance compared to parental ([1]; clone 1D10 (gStub1 #1), 0.10 ng ml-1, 24 h): 4.42
MHC-I relative abundance compared to parental ([1]; clone 1D10 (gStub1 #1), 0.10 ng ml-1, 48 h): 13.18
MHC-I relative abundance compared to parental ([1]; clone 1E6, 0.10 ng ml-1, 24 h): 9.22
MHC-I relative abundance compared to parental ([1]; clone 1E6, 0.10 ng ml-1, 48 h): 24.23
MHC-I relative abundance compared to parental ([1]; clone 1G6, 0.10 ng ml-1, 24 h): 4.19
MHC-I relative abundance compared to parental ([1]; clone 1G6, 0.10 ng ml-1, 48 h): 12.85
MHC-I relative abundance compared to parental ([1]; clone 1G10, 0.10 ng ml-1, 24 h): 1.08
MHC-I relative abundance compared to parental ([1]; clone 1G10, 0.10 ng ml-1, 48 h): 0.94
MHC-I relative abundance compared to parental ([1]; clone 1H7, 0.10 ng ml-1, 24 h): 2.27
MHC-I relative abundance compared to parental ([1]; clone 1H7, 0.10 ng ml-1, 48 h): 5.53
MHC-I relative abundance compared to parental ([1]; clone 2B11, 0.10 ng ml-1, 24 h): 2.67
MHC-I relative abundance compared to parental ([1]; clone 2B11, 0.10 ng ml-1, 48 h): 9.24
MHC-I relative abundance compared to parental ([1]; clone 2E8 (gControl), 0.10 ng ml-1, 24 h): 0.75
MHC-I relative abundance compared to parental ([1]; clone 2E8 (gControl), 0.10 ng ml-1, 48 h): 0.77
MHC-I relative abundance compared to parental ([1]; clone 2E9, 0.10 ng ml-1, 24 h): 4.10
MHC-I relative abundance compared to parental ([1]; clone 2E9, 0.10 ng ml-1, 48 h): 11.55
MHC-I relative abundance compared to parental ([1]; clone 2F7, 0.10 ng ml-1, 24 h): 1.00
MHC-I relative abundance compared to parental ([1]; clone 2F7, 0.10 ng ml-1, 48 h): 1.01
MHC-I relative abundance compared to parental ([1]; clone 2H3, 0.10 ng ml-1, 24 h): 3.56
MHC-I relative abundance compared to parental ([1]; clone 2H3, 0.10 ng ml-1, 48 h): 12.42
Cell surface IFNGR1 with increasing IFNγ [2]: declined with increasing IFNγ concentration
